Converted amounts (≈) assume the structure as drawn.
Assays:
[1] = test system: Sclerotinia; test: Antifungal activity against rape Sclerotinia rot at 50 ug/ml relative to control; assay type: functional
[2] = test system: Trichophyton interdigitale; test: Antifungal activity against Trichophyton interdigitale; assay type: functional
[3] = test system: Rhizoctonia solani; test: Antifungal activity against Rhizoctonia solani; assay type: functional, organism-based
[4] = test system: Bipolaris maydis; test: Antifungal activity against Bipolaris maydis relative to control; assay type: functional; parameters: concentration or dose not given beside the values
[5] = test system: Alternaria solani; test: Antifungal activity against Alternaria solani relative to control; assay type: functional; parameters: concentration or dose not given beside the values
[6] = test system: Sclerotinia sclerotiorum; test: Antifungal activity against Sclerotinia sclerotiorum; assay type: functional, organism-based
[7] = test system: Fusarium solani; test: Antifungal activity against Fusarium solani incubated for 72 hrs; assay type: functional, organism-based; conditions: for EC50: Fusarium solani, 72 h
[8] = test system: Sclerotinia; test: Antifungal activity against sunflower Sclerotinia rot at 50 ug/ml relative to control; assay type: functional; conditions: dose 50 µg/ml
[9] = test system: Fusarium solani; test: Antifungal activity against Fusarium solani; assay type: functional, organism-based
[10] = test system: Phytophthora litchii; test: Antifungal activity against Phytophthora litchii assessed as inhibition of growth rate at 100 mg/L relative to control; assay type: functional
[11] = test system: Candida parapsilosis; test: Antifungal activity against Candida parapsilosis; assay type: functional; conditions: Lodderomyces parapsilosis
[12] = test system: Candida tropicalis; test: Antifungal activity against Candida tropicalis; assay type: functional
[13] = test system: Nakaseomyces glabratus; test: Antifungal activity against Candida glabrata; assay type: functional
[14] = test system: Kluyveromyces marxianus; test: Antifungal activity against Candida kefyr; assay type: functional
[15] = test system: Candida albicans; test: Antifungal activity against Candida albicans; assay type: functional, organism-based; conditions: for MIC: Candida albicans
[16] = test system: Cryptococcus neoformans; test: Antifungal activity against Cryptococcus neoformans; assay type: functional
[17] = test system: Pichia kudriavzevii; test: Antifungal activity against Candida krusei; assay type: functional
[18] = test system: Candida albicans; test: Antifungal activity against Candida albicans incubated for 72 hrs; assay type: functional
[19] = test system: Aspergillus niger; test: Antifungal activity against Aspergillus niger assessed as inhibition of growth rate at 100 ug/ml by disc diffusion method relative to control; assay type: functional
[20] = test system: Bipolaris oryzae; test: Antifungal activity against Helminthosporium oryzae assessed as inhibition of growth rate at 100 ug/ml by disc diffusion method relative to control; assay type: functional
[21] = test system: Candida albicans; test: Antifungal activity against Candida albicans incubated for 24 hrs by well diffusion method; assay type: functional
[22] = test system: Curvularia lunata; test: Antifungal activity against Curvularia lunata; assay type: functional, organism-based
[23] = test system: Saccharomyces cerevisiae; test: Antifungal activity against Saccharomyces cerevisiae; assay type: functional
[24] = test system: Alternaria alternata; test: Antifungal activity against Alternaria alternata; assay type: functional
[25] = test system: Cytospora mali; test: Antifungal activity against Valsa mali; assay type: functional
[26] = test system: Colletotrichum gloeosporioides; test: Antifungal activity against Colletotrichum gloeosporioides; assay type: functional
[27] = test system: Alternaria brassicae; test: Antifungal activity against Alternaria brassicae; assay type: functional
[28] = test system: Gaeumannomyces graminis; test: Antifungal activity against Gaeumannomyces graminis; assay type: functional, organism-based

Fc1ccc(Cn2c3ccccc3c3ccnc(-c4nc5ccccc5[nH]4)c32)cc1
Activity ([1]; dose 50 µg/ml): 79.89%

CCCCCCCCCc1nccc2c1[nH]c1ccccc12
MIC [2]: 3.2 µg/mL (≈ 10.9 µM)

CCCCCCc1nccc2c1[nH]c1ccccc12
MIC [2]: 25 µg/mL (≈ 99.1 µM)

CCCCCCCCc1nccc2c1[nH]c1ccccc12
MIC [2]: 3.2 µg/mL (≈ 11.4 µM)

CCCCCCCCCCc1nccc2c1[nH]c1ccccc12
MIC [2]: 1.6 µg/mL (≈ 5.19 µM)

COc1cc(-c2nc(NC(=O)NC(=O)c3c(F)cccc3F)cc3c2[nH]c2ccccc23)cc(OC)c1OC
EC50 [3]: 131 µg/mL (≈ 246 µM)

Cc1nccc2c1[nH]c1cc(OC(=O)C(C)(C)C)ccc12
Activity [4]: 78.9%
Activity [5]: 66.7%

Cc1nc(C(=O)O)cc2c1[nH]c1ccccc12 [HARMAN-3-CARBOXYLIC ACID]
Activity [4]: 21.1%
Activity [5]: 33.3%

CC(C)[C@@H]1COC(c2nccc3c2[nH]c2ccccc23)=N1
EC50 [6]: 15.5 µM

COC(=O)Nc1nc2ccccc2[nH]1 [CARBENDAZIM]
EC50 [7]: 4.34 µM
Activity [8]: 89.77%

CC(C)CCc1nccc2c1[nH]c1ccccc12
MIC [2]: 50 µg/mL (≈ 210 µM)

Cc1ccc2c(c1)c1c(n2C)C=[N+](c2ccc(Cl)cc2)CC1
EC50 [9]: 2.68 µM

CC[C@@H](C)[C@@H]1COC(c2nccc3c2[nH]c2ccccc23)=N1
EC50 [6]: 17.7 µM

COCC(=O)N(c1c(C)cccc1C)C(C)C(=O)OC (centres undefined) [METALAXYL]
inhibition at 100 µg/mL [10]: 93.4%

CCCCCCCC[C@@H]1N[C@H](C(=O)OC)Cc2c1[nH]c1ccccc21
MIC [11]: > 94.7 µg/mL
MIC [12]: > 94.7 µg/mL
MIC [13]: 23.7 µg/mL (≈ 69.1 µM)
MIC [14]: 23.7 µg/mL (≈ 69.1 µM)
MIC [15]: > 94.7 µg/mL
MIC [16]: 14.8 µg/mL (≈ 43.2 µM)
MIC [17]: > 94.7 µg/mL

COc1ccc2c(c1)[nH]c1c(C)nccc12 [HARMINE]
Activity [4]: 22.7%
MIC [18]: 500 µg/mL (≈ 2360 µM)
Activity [5]: 15.7%

Cc1ccccc1[N+]1=Cc2c(c3ccccc3n2C)CC1
EC50 [9]: 2.35 µM

COc1cc(C(=O)NC(=S)Nc2cc3c([nH]c4ccccc43)c(-c3cc(OC)c(OC)c(OC)c3)n2)cc(OC)c1OC
EC50 [3]: 293 µg/mL (≈ 486 µM)

CN(C)c1ccc(C2NCCc3c2[nH]c2ccccc32)cc1 (centres undefined)
inhibition at 100 µg/mL [19]: 20.8%
inhibition at 100 µg/mL [20]: 21.6%

C[n+]1ccc2c3ccccc3n(-n3c4ccccc4c4cc[n+](C)cc43)c2c1.[I-].[I-]
EC50 [15]: 0.5 uM/ml

CC1=NCCc2c1[nH]c1cc(O)ccc21 [HARMALOL]
MIC [18]: 750 µg/mL (≈ 3750 µM)

c1ccc2[nH]c(-c3cscn3)nc2c1 [THIABENDAZOLE]
EC50 [7]: 12.5 µM
inhibition (INH) ([7]; time 72 hrs): 89.3%

COc1ccc(-c2nc(NC(=O)NC(=O)c3c(F)cccc3F)cc3c2[nH]c2ccccc23)cc1
EC50 [3]: 277 µg/mL (≈ 586 µM)

c1ccc([C@@H]2COC(c3nccc4c3[nH]c3ccccc34)=N2)cc1
EC50 [6]: 17.3 µM

Cc1nccc2c1[nH]c1cc(OC(=O)NC(C)C)ccc12
Activity [4]: 22.7%
Activity [5]: 21.1%

C=CCCCCCCCCCOC(=O)c1cc2c([nH]c3ccccc32)c(-c2ccc(OC)cc2)n1
MIC [15]: 8.6 µg/mL (≈ 18.3 µM)
MIC [21]: 8.6 µg/mL (≈ 18.3 µM)

C#CCn1c2ccccc2c2cc(C)ncc21
EC50 [22]: 6.73 µg/mL (≈ 30.6 µM)

Cc1nccc2c1[nH]c1ccc(Br)cc12
Activity [4]: 86.4%
Activity [5]: 73.7%

Oc1ccccc1C1NCCc2c1[nH]c1ccccc21 (centres undefined)
inhibition at 100 µg/mL [19]: 21.2%
inhibition at 100 µg/mL [20]: 19.8%

c1ccc(C[C@@H]2COC(c3nccc4c3[nH]c3ccccc34)=N2)cc1
EC50 [6]: 12 µM

Cc1nccc2c1[nH]c1ccccc12 [HARMAN]
Activity [4]: 36.4%
Activity [5]: 68.4%
MIC [2]: 200 µg/mL (≈ 1100 µM)

CC(=O)N1CCN(c2ccc(OCC3COC(Cn4ccnc4)(c4ccc(Cl)cc4Cl)O3)cc2)CC1 (centres undefined) [KETOCONAZOLE]
MIC [23]: 2.5 µg/mL (≈ 4.7 µM)
MIC [24]: 12.5 µg/mL (≈ 23.5 µM)
MIC [25]: 12.5 µg/mL (≈ 23.5 µM)
MIC [26]: 12.5 µg/mL (≈ 23.5 µM)
MIC [27]: 12.5 µg/mL (≈ 23.5 µM)

CCCCCCCc1nccc2c1[nH]c1ccccc12
MIC [2]: 12.5 µg/mL (≈ 46.9 µM)

CC(C)Cc1nccc2c1[nH]c1ccccc12
MIC [2]: 100 µg/mL (≈ 446 µM)

Cc1ccc2c(c1)c1c(n2C)C=[N+](c2ccc(F)cc2)CC1
EC50 [9]: 5.44 µM

CCn1c2ccccc2c2ccnc(-c3nc4ccccc4[nH]3)c21
inhibition at 50 µg/mL ([1]; Sclerotinia): 92%

C=CCCCCCCCCCOC(=O)c1cc2c([nH]c3ccccc32)c(-c2ccc(O)cc2)n1
MIC [15]: 2.8 µg/mL (≈ 6.13 µM)
MIC [21]: 2.8 µg/mL (≈ 6.13 µM)

CC(C)c1nc(C(N)=O)cc2c1[nH]c1ccccc12
EC50 [28]: 2.85 µM

Clc1ccc(COC(Cn2ccnc2)c2ccc(Cl)cc2Cl)c(Cl)c1 (centres undefined) [MICONAZOLE]
MIC [21]: 7.8 µg/mL (≈ 18.7 µM)

O=C(O)c1cc2c([nH]c3ccccc32)c(-c2ccsc2)n1
EC50 [6]: 11.9 µM
